# Experimental data taken from paper PMC11149917, “Translational and Therapeutic Evaluation of RAS-GTP Inhibition by RMC-6236 in RAS-Driven Cancers” (Cancer Discovery, 2024).
# Read-outs that look alike come from different tables or passages of the source.
# Experiments:
# [1] = system: panel of 78 cancer cell lines; assay: Cell panel 3D methylcellulose CellTiter-Glo proliferation; type: cell-based; conditions: Homo sapiens
# Description: A panel of 78 cancer cell lines harboring mutant and wild-type RAS was selected for screening at Crown Bioscience (Supplementary Table S2). The panel consisted of cell lines with any substitution at position 12 of KRAS, cell lines with any substitutions at position 61 of NRAS, and cell lines with a BRAF^V600E mutation. […] Cells were incubated for 120 hours prior to measurement of adenosine triphosphate (ATP) levels using the CellTiter-Glo Luminescent Cell Viability Assay (CTG; Promega, G7572), a method of determining the number of metabolically active cells based on quantitation of cellular ATP, according to the manufacturer's instructions. To measure induction of apoptosis, cells were incubated with RMC-6236 for 48 hours prior to measuring cleavage of a proluminescent caspase-3/7 DEVD-aminoluciferin substrate using the CaspaseGlo-3/7 Assay (Promega, G8092) according to the manufacturer’s instructions.
# [2] = system: Ki67 in ear skin; assay: IHC whole-slide quantification; type: in vivo, mouse; conditions: control 5.4
smiles,measurement,setting,value
CCn1c(-c2cc(N3CCN(C)CC3)cnc2[C@H](C)OC)c2c3cc(ccc31)-c1csc(n1)C[C@H](NC(=O)[C@H]1C[C@@H]1C)C(=O)N1CCC[C@H](N1)C(=O)OCC(C)(C)C2 [RMC-6236],EC50,"[1]; NCI-H727, NCIH727, KRAS G12V, Lung, read-out: Proliferation Inhibition (EC50)",4.2 nM
same,EC50,"[1]; NCI-H1299, NCIH1299, NRAS Q61K, Lung, read-out: Proliferation Inhibition (EC50)",26.3 nM
same,EC50,"[1]; NCI-H1373, NCIH1373, KRAS G12C, Lung, read-out: Proliferation Inhibition (EC50)",5.2 nM
same,EC50,"[1]; NCI-H1792, NCIH1792, KRAS G12C, Lung, read-out: Proliferation Inhibition (EC50)",7.4 nM
same,EC50,"[1]; NCI-H2009, NCIH2009, KRAS G12A, Lung, read-out: Proliferation Inhibition (EC50)",19.3 nM
same,EC50,"[1]; NCI-H2087, NCIH2087, NRAS Q61K, Lung, read-out: Proliferation Inhibition (EC50)",4 nM
same,EC50,"[1]; NCI-H2122, NCIH2122, KRAS G12C, Lung, read-out: Proliferation Inhibition (EC50)",6.7 nM
same,EC50,"[1]; NOZ, KRAS G12V, Liver/Bile duct, read-out: Proliferation Inhibition (EC50)",33.1 nM
same,EC50,"[1]; NRAS^Q61X cells, read-out: median EC50, cell growth inhibition",22 nM
same,EC50,"[1]; OVCAR-5, OVCAR5, KRAS G12V, Ovary, read-out: Proliferation Inhibition (EC50)",2 nM
same,EC50,"[1]; PANC-1, PANC1, KRAS G12D, Pancreas, read-out: Proliferation Inhibition (EC50)",1.4 nM
same,EC50,"[1]; PANC-03-27, PANC0327, KRAS G12V, Pancreas, read-out: Proliferation Inhibition (EC50)",1 nM
same,EC50,"[1]; PL45, PL45, KRAS G12D, Pancreas, read-out: Proliferation Inhibition (EC50)",86.5 nM
same,EC50,"[1]; Panc 05.04, PANC0504, KRAS G12D, Pancreas, read-out: Proliferation Inhibition (EC50)",6.1 nM
same,EC50,"[1]; Panc1005, PANC1005, KRAS G12D, Pancreas, read-out: Proliferation Inhibition (EC50)",27.1 nM
same,EC50,"[1]; RBE, KRAS G12V, Liver/Bile duct, read-out: Proliferation Inhibition (EC50)",5.8 nM
same,EC50,"[1]; RKO*, BRAF V600E, Intestine/Large/Colorectum, read-out: Proliferation Inhibition (EC50)",> 100 nM
same,EC50,"[1]; SHP77, SHP77, KRAS G12V, Lung, read-out: Proliferation Inhibition (EC50)",> 100 nM
same,EC50,"[1]; SK-CO-1, SKCO1, KRAS G12V, Intestine/Large/Colorectum, read-out: Proliferation Inhibition (EC50)",3 nM
same,EC50,"[1]; SK-LU-1, SKLU1, KRAS G12D, Lung, read-out: Proliferation Inhibition (EC50)",6 nM
same,EC50,"[1]; SK-MEL-2, SKMEL2, NRAS Q61R, Skin, read-out: Proliferation Inhibition (EC50)",38.8 nM
same,EC50,"[1]; SK-N-AS, SKNAS, NRAS Q61K, Brain and Nerves, read-out: Proliferation Inhibition (EC50)",8.3 nM
same,EC50,"[1]; SK-N-SH, SKNSH, NRAS Q61K, Brain and Nerves, read-out: Proliferation Inhibition (EC50)",> 100 nM
same,EC50,"[1]; SNU1, SNU1, KRAS G12D, Stomach, read-out: Proliferation Inhibition (EC50)",13 nM
same,EC50,"[1]; SNU719, NRAS Q61L, Stomach, read-out: Proliferation Inhibition (EC50)",32.2 nM
same,EC50,"[1]; SNU-387, SNU387, NRAS Q61K, Liver, read-out: Proliferation Inhibition (EC50)",9.2 nM
same,EC50,"[1]; SNU-601, SNU601, KRAS G12D, Stomach, read-out: Proliferation Inhibition (EC50)",26.2 nM
same,EC50,"[1]; SNUC2A, KRAS G12D, Intestine/Large/Colorectum, read-out: Proliferation Inhibition (EC50)",> 100 nM
same,EC50,"[1]; SU.86.86, SU8686, KRAS G12D, Pancreas, read-out: Proliferation Inhibition (EC50)",20.2 nM
same,EC50,"[1]; SW480, SW480, KRAS G12V, Intestine/Large/Colorectum, read-out: Proliferation Inhibition (EC50)",5.1 nM
same,EC50,"[1]; SW626, SW626, KRAS G12V, Ovary, read-out: Proliferation Inhibition (EC50)",3.8 nM
same,EC50,"[1]; SW756, SW756, KRAS G12C, Ovary, read-out: Proliferation Inhibition (EC50)",26.9 nM
same,EC50,"[1]; SW837, SW837, KRAS G12C, Intestine/Large/Colorectum, read-out: Proliferation Inhibition (EC50)",18.8 nM
same,EC50,"[1]; SW900, SW900, KRAS G12V, Lung, read-out: Proliferation Inhibition (EC50)",3.1 nM
same,EC50,"[1]; SW 1116, SW1116, KRAS G12A, Intestine/Large/Colorectum, read-out: Proliferation Inhibition (EC50)",70.9 nM
same,EC50,"[1]; SW1271, SW1271, NRAS Q61R, Lung, read-out: Proliferation Inhibition (EC50)",4.6 nM
same,EC50,"[1]; SW1463, SW1463, KRAS G12C, Intestine/Large/Colorectum, read-out: Proliferation Inhibition (EC50)",20.4 nM
same,EC50,"[1]; SW1573, SW1573, KRAS G12C, Lung, read-out: Proliferation Inhibition (EC50)",> 100 nM
same,EC50,"[1]; SW1990, SW1990, KRAS G12D, Pancreas, read-out: Proliferation Inhibition (EC50)",6.7 nM
same,EC50,"[1]; SW-403, SW403, KRAS G12V, Intestine/Large/Colorectum, read-out: Proliferation Inhibition (EC50)",3.5 nM
same,EC50,"[1]; SW-620, SW620, KRAS G12V, Intestine/Large/Colorectum, read-out: Proliferation Inhibition (EC50)",2.7 nM
same,EC50,"[1]; UMUC3, UMUC3, KRAS G12C, Bladder, read-out: Proliferation Inhibition (EC50)",2.6 nM
same,EC50,"[1]; YCC2, KRAS G12S, Stomach, read-out: Proliferation Inhibition (EC50)",22.9 nM
same,EC50,"[1]; all three BRAF^V600E mutant cells, read-out: resistance to growth inhibition",> 100 nM
same,Ki67 (% positive cells),"[2]; Ear Skin (25 mg/kg x7d), 8h",5.3%
same,Ki67 (% positive cells),"[2]; Ear Skin (25 mg/kg x7d), 24h",3.3%
same,Ki67 (% positive cells),"[2]; Ear Skin (25 mg/kg x7d), 48hr",6.4%
same,Ki67 (% positive cells),"[2]; Ear Skin (25 mg/kg), 8h",5.2%
same,Ki67 (% positive cells),"[2]; Ear Skin (25 mg/kg), 24h",3.1%
same,Ki67 (% positive cells),"[2]; Ear Skin (25 mg/kg), 48hr",5.9%
